Test results as given in USRE33897E, “Synthetic polypeptides and antibodies related to Epstein-Barr virus nuclear antigen” (Scripps Clinic and Research Foundation, priority 1989, dated 1992).
Residues, ends and D or L forms follow the SMILES beside them.

Key:
anti-EBNA antibodies = assay: ELISA with polypeptide as solid phase antigen, detecting anti-polypeptide antibodies in sera; assay type: binding, human; conditions: for Average titer of Progressive Systemic Schlerosis (PSS) patients to polypeptide compared with normals: high and low serum dilutions; for Reaction of VCA- sera with polypeptide: panel of 19 VCA- sera; for Number of 91 anti-EBNA positive (ACIF) sera positive against polypeptide: sera at 1:20 dilution; for Reaction of sera of clinically normal VCA+ individuals with polypeptide: two serum dilutions
Experimental: A solution containing a substrate for the enzyme label such as hydrogen peroxide for peroxidase and a color-forming dye precursor such as o-phenylenediamine, or p-nitrophenyl phosphate for alkaline phosphatase is thereafter admixed with the solid phase.
Anti-peptide antibody binding and inhibition studies were carried out by an enzyme-linked immunosorbent assay (ELISA) as described below.
Briefly, microtiter wells (Costar, #3590, Cambridge, Mass.) were coated with individual polypeptides as antigens by adding 100 microliters (ul) of BBS [10 millimoler (mM) sodium borate (pH 8.3), 150 mM NaCl] containing polypeptide at a concentration of 10 micrograms per milliliter (ug/ml). Contact between the wells and antigen-containing solution was maintained for a predetermined time, typically 15 minutes, and at 20 degrees C., to form an antigen-coated solid phase. The solid and liquid phases were separated and the wells were washed three times with BBS.
Non-specific binding sites were blocked by admixing 200 microliters of 1% bovine serum albumin (BSA) in each well to form another solid-liquid phase admixture, and maintaining that solid-liquid phase admixture for 30 minutes, at 20 degrees C. The phases were separated and excess, unbound BSA was removed by washinq three times with BBS.
[…] Contact between the diluted sera and the antigen-coated solid phase was maintained for a predetermined time such as 1 hour, and at 20 degrees C., for an immunoreactant to form. The solid and liquid phases were separated, and the solid phase; i.e., antigen-coated, immunoreactant-containing wells, was then washed three times with BBS.
The antibodies in human sera that immunoreacted with an adsored polypeptide were detected using an indicating means comprising alkaline phosphatase-conjugated goat anti-human Ig antibody (Tago, Burlington, CA). The antibodies in rabbit sera that immunoreacted with an adsorbed polypeptide were detected using an indicating means comprising alkaline phosphatase-conjugated goat anti-rabbit Ig antibody (Kirkegard & Perry Laboratories, Inc., Gaithersburg, Md.). In either instance, 100 microliters of the indicating antibody diluted 1:300 in BBS were added per well to form a further solid-liquid phase composition. This solidliquid phase composition was maintained for a predetermined time, one hour, for the formation of a reaction product between the human antibodies bound to the solid phase and the indicating means, and at 20 degrees C.

[1] = Circular dichroism spectroscopy of polypeptides in phosphate buffered saline; assay type: physicochemical; conditions: 1 mg/ml
Experimental: The conformational properties of the polypeptides were investigated to elucidate any secondary structure that might be necessary for polypeptide immunoreaction with human anti-EBNA antibodies. The polypeptides were dissolved at a concentration of 1 mg/ml in phosphate-buffered saline (PBS). Spectra were taken using 1 ml samples in a Cary 61 spectropolarimeter (Cary Instruments, Applied Physics Corp., Monrovia, Calif.) interfaced and automated with a Digital Equipment Corporation 11/02 computer (Digital Equipment Corporation, Maynard, Mass.).

| Structure (SMILES) | Average titer of Progressive Systemic Schlerosis (PSS) patients to polypeptide compared with normals (anti-EBNA antibodies) | Reaction of VCA- sera with polypeptide (anti-EBNA antibodies) | Number of 91 anti-EBNA positive (ACIF) sera positive against polypeptide (anti-EBNA antibodies) | Reaction of sera of clinically normal VCA+ individuals with polypeptide (anti-EBNA antibodies) | Conformation indicated by circular dichroism spectrum [1] | OD405 × 10^3 obtained with patient antibodies to polypeptide, average ± one standard deviation (anti-EBNA antibodies; VCA- Normals (n = 27), dilution 1:20) | Antibodies binding to polypeptide before and after EBV-induced infectious mononucleosis (anti-EBNA antibodies; sera of two subjects) | OD405 × 10^3 obtained with patient antibodies to polypeptide (anti-EBNA antibodies; serum MV post-mononucleosis, dilution 1:20) | OD405 × 10^3 obtained with patient antibodies to polypeptide (anti-EBNA antibodies; serum MV pre-mononucleosis, dilution 1:20) | OD405 × 10^3 obtained with patient antibodies to polypeptide (anti-EBNA antibodies; serum SB post-mononucleosis, dilution 1:20) | OD405 × 10^3 obtained with patient antibodies to polypeptide (anti-EBNA antibodies; serum SB pre-mononucleosis, dilution 1:20) | OD405 × 10^3 obtained with patient antibodies to polypeptide (anti-EBNA antibodies; serum VCA + Normal 1, dilution 1:20) | OD405 × 10^3 obtained with patient antibodies to polypeptide (anti-EBNA antibodies; serum VCA + Normal 2, dilution 1:20) |
| --- | --- | --- | --- | --- | --- | --- | --- | --- | --- | --- | --- | --- | --- |
| C[C@H](NC(=O)CNC(=O)CNC(=O)[C@H](C)NC(=O)CNC(=O)[C@H](C)NC(=O)CNC(=O)CNC(=O)[C@H](C)NC(=O)CNC(=O)[C@H](C)NC(=O)CNC(=O)CNC(=O)[C@H](C)NC(=O)CNC(=O)[C@H](C)NC(=O)CNC(=O)CN)C(=O)NCC(=O)N[C@@H](C)C(=O)NCC(=O)O [Polypeptide F16, H--Gly--Gly--Ala--Gly--Ala--Gly--Gly--Ala--Gly--Ala--Gly--Gly--Ala--Gly--Ala--Gly--Gly--Ala--Gly--Ala--Gly--OH] (H-GGAGAGGAGAGGAGAGGAGAG-OH) | relatively higher average titer | None of the VCA- sera were found to react positively | 91 | all of the VCA+ indiviuals were positive |  |  |  |  |  |  |  |  |  |
| C[C@H](NC(=O)CN)C(=O)NCC(=O)NCC(=O)N[C@@H](C)C(=O)NCC(=O)N[C@@H](C)C(=O)NCC(=O)NCC(=O)NCC(=O)N[C@@H](C)C(=O)NCC(=O)NCC(=O)N[C@@H](C)C(=O)NCC(=O)NCC(=O)O [Polypeptide F15, H--Gly--Ala--Gly--Gly--Ala--Gly--Ala--Gly--Gly--Gly--Ala--Gly--Gly--Ala--Gly--Gly--OH] (H-GAGGAGAGGGAGGAGG-OH) | relatively higher average titer | None of the VCA- sera were found to react positively | 91 | all of the VCA+ indiviuals were positive | very similar spectra |  |  |  |  |  |  |  |  |
| CC[C@H](C)[C@H](N)C(=O)N[C@@H](CCSC)C(=O)N[C@@H](CO)C(=O)N[C@@H](CC(=O)O)C(=O)N[C@@H](CCC(=O)O)C(=O)NCC(=O)N1CCC[C@H]1C(=O)NCC(=O)N[C@H](C(=O)NCC(=O)N[C@@H](CC(N)=O)C(=O)NCC(=O)N[C@@H](CC(C)C)C(=O)NCC(=O)N[C@@H](CCC(=O)O)C(=O)O)[C@@H](C)O [Polypeptide F12, H--Ile--Met--Ser--Asp--Glu--Gly--Pro--Gly--Thr--Gly--Asn--Gly--Leu--Gly--Glu--OH] (H-IMSDEGPGTGNGLGE-OH) |  | None of the VCA- sera were found to react positively |  | all of the VCA+ indiviuals were positive | partial assumption of such conformation |  |  |  |  |  |  |  |  |
| C[C@H](NC(=O)CNC(=O)CNC(=O)CNC(=O)[C@H](C)NC(=O)CNC(=O)[C@H](C)NC(=O)CNC(=O)CNC(=O)[C@H](C)NC(=O)CNC(=O)CNC(=O)[C@H](C)NC(=O)CNC(=O)CN)C(=O)NCC(=O)O [Polypeptide F14, H--Gly--Gly--Ala--Gly--Gly--Ala--Gly--Gly--Ala--Gly--Ala--Gly--Gly--Gly--Ala--Gly--OH] (H-GGAGGAGGAGAGGGAG-OH) | relatively higher average titer | None of the VCA- sera were found to react positively | 91 | all of the VCA+ indiviuals were positive | very similar spectra |  |  |  |  |  |  |  |  |
| C[C@H](NC(=O)CNC(=O)[C@@H]1CCCN1)C(=O)N1CCC[C@H]1C(=O)NCC(=O)NCC(=O)N[C@@H](CO)C(=O)NCC(=O)N[C@@H](CO)C(=O)NCC(=O)N1CCC[C@H]1C(=O)O [Polypeptide F13, H--Pro--Gly--Ala--Pro--Gly--Gly--Ser--Gly--Ser--Gly--Pro--OH] (H-PGAPGGSGSGP-OH) |  | None of the VCA- sera were found to react positively |  | all of the VCA+ indiviuals were positive | random conformation |  |  |  |  |  |  |  |  |
| C[C@H](NC(=O)CNC(=O)CNC(=O)[C@H](C)NC(=O)CNC(=O)[C@H](C)NC(=O)CNC(=O)[C@H](C)NC(=O)CNC(=O)[C@@H](NC(=O)CNC(=O)CNC(=O)[C@H](Cc1c[nH]cn1)NC(=O)[C@@H](NC(=O)CNC(=O)[C@@H](N)CCCCN)[C@@H](C)O)[C@@H](C)O)C(=O)NCC(=O)N[C@@H](C)C(=O)NCC(=O)O [Polypeptide P27, H--Lys--Gly--Thr--His--Gly--Gly--Thr--Gly--Ala--Gly--Ala--Gly--Ala--Gly--Gly--Ala--Gly--Ala--Gly--OH] (H-KGTHGGTGAGAGAGGAGAG-OH) | relatively higher average titer | None of the VCA- sera were found to react positively | 91 | all of the VCA+ indiviuals were positive | very similar spectra | 67 ± 23 OD405 × 10^3 | absent before infection, but appeared afterward | 107 OD405 × 10^3 | 15 OD405 × 10^3 | 33 OD405 × 10^3 | 11 OD405 × 10^3 | 155 OD405 × 10^3 | 516 OD405 × 10^3 |
